Counter-ions that a name gives are not always drawn.
Assays:
[1] = system: LoVo RAMS11 CRISPR KO cells; experiment: Individual drug IC50 / cell viability assays in RAMS11 CRISPR KO cells; type: cell-based; conditions: for effect of cell viability: LoVo RAMS11 CRISPR KO cells
Protocol: The NIH approved oncology library of 119 drugs (AOD6 plate 4825-1 and AOD6 plate 4826) was received from the NIH National Cancer Institute DTP Developmental Therapeutics Program. Drugs were diluted in DMSO to 1 mM and the well assignments were rearranged so drugs were confined to the inner 60 wells of 96-well plates. HT29 RAMS11 overexpressing Clone1 and Clone2 cell lines were seeded at 5000 cells per well in a 96-well plate. The next day serial diluted drug was added to pre-seeded plates in media containing 1% DMSO vehicle, using a Robbins Hydra 96 micro dispenser. Two 96-well plates of cells were used as vehicle controls. The plates were incubated for 3 days. Percent viability was scored by incubating cells for 3 h with resazurin sodium (0.023 mg/mL, Sigma R7017). The reaction was stopped by the addition of SDS (1% final concentration). Fluorescence Ex/Em 540/590 was read in a Biotek Synergy H1 plate reader (Winooski, VT). The fluorescence values for the vehicle plates were averaged and percent viability was determined by the formula: Percent viability=[…]/(average vehicle−average resazurin in media blank)×100. We removed drugs that were undetectable, or out of range, by resazurin assay, leaving 118 drugs to assess in the study (TABLE 3). Values with more than a 1.5-fold change in both RAMS11 Clone1 and Clone2 overexpressing cell lines were used to determine significance. Individual drug IC50 assays were done in a similar manner as described above with CRISPR KO cells. Assays were repeated more than three times.

wildtype (WT) HT29 cells = experiment: Tail vein lung metastasis model, 5FU treatment, BLI imaging, wildtype cells; type: in vivo, NOD scid mice; conditions: WT cell-injected mice, 50 mg/kg 5FU, Week 3
Protocol: (§1) To determine if cells with high RAMS11 expression promote resistance to fluorouracil (5FU) treatment, 9-week-old female NOD scid mice were injected with 1 e6 wildtype (WT) or RAMS11-overexpressing (RAMS11) HT29 cells (with GFP-luciferase incorporated) via the tail vein, a common model of lung metastasis^13. Seventy-two hours after tumor cell injection mice were subcutaneously treated with vehicle (PBS) or 50 mg/kg 5FU and imaged weekly. […] Further, high expression of RAMS11 promoted resistance to treatment with 5FU.

[2] = system: RAMS11-overexpressing (RAMS11) HT29 cells; experiment: Tail vein lung metastasis model, 5FU treatment, BLI imaging, RAMS11-overexpressing cells; type: in vivo, NOD scid mice; conditions: RAMS11 cell-injected mice, 50 mg/kg 5FU
Protocol: as §1

[3] = system: SW620 cells with silenced RAMS11; experiment: Drug IC50 / cell viability assays in cells with transient silencing of RAMS11
[4] = system: HT29 RAMS11 overexpressing cells; experiment: High-throughput viability assay (resazurin), 119 FDA-approved anticancer drugs, RAMS11 overexpressing cells (Clone1, Clone2); conditions: for Viability Fold Change: 72 h, vs empty vector control; for increase in drug resistance in HT29 RAMS11 overexpressing cells: topoisomerase inhibitors, vs empty vector cells; for effect of cell viability: HT29 RAMS11 overexpressing cells
RAMS11 = RAMS11 knockdown by ASOs, qPCR; type: cell-based; conditions: in vivo optimized LNA GapmeR ASOs
Text: (§2) Exiqon's locked nucleic acid (LNA) GapmeRs antisense oligonucleotides (ASOs) were used. They contain a central stretch (gap) of monomers flanked by blocks of LNA modified nucleotides that (i) increase the target affinity and nuclease resistance of the oligo and (ii) the gap activates RNase H cleavage of the target RNA upon binding. The LNATM oligonucleotides can be designed for any region of the target RNA sequence. In addition, the design flexibility afforded by LNATM means that it is possible to design multiple LNATM antisense oligonucleotides to the same target sequence, which serve as useful experimental controls. […] NO: 41) and […] NO: 42). Total RNA was isolated for each CRC cell line using Takara Bio NucleoSpin RNA (Takara, Mountain View, CA). Total RNA was then transcribed to cDNA with SuperScript Ill First strand cDNA system (Invitrogen) and quantified using Fast Sybr Green Master Mix (Invitrogen) as per the manufacturer's protocol. Primer sequences are available in TABLE 5.

LoVo cells = type: cell-based
Text: as §2, with “42).” for “42). Total RNA was isolated for each CRC cell line using Takara Bio NucleoSpin RNA (Takara, Mountain View, CA). Total RNA was then transcribed to cDNA with SuperScript Ill First strand cDNA system (Invitrogen) and quantified using Fast Sybr Green Master Mix (Invitrogen) as per the manufacturer's protocol. Primer sequences are available in TABLE 5.”

TOP2α promoter = experiment: Chromatin immunoprecipitation (ChIP) qPCR at TOP2α promoter, LoVo; type: cell-based; conditions: LoVo cells
Protocol: ChIP qPCR assays were conducted by first sonicating five million cells in SDS lysis buffer (1% SDS, 500 mM EDTA, 50 mM Tris-HCl pH 8). […] The next day Dynabeads Protein G (Invitrogen) were added to the antibody lysate mixture and rotated for 1 h. Bead/lysate mixture was then washed once with low salt wash buffer (0.1% SDS, 1% Triton X-100, 2 mM EDTA, 20 mM Tris-HCl pH 8, 150 mM NaCl), then high salt buffer (0.1% SDS, 1% Triton X-100, 2 mM EDTA, 20 mM Tris-HCl pH 8, 500 mM NaCl), lithium chloride wash buffer (0.25 M lithium chloride, 1% NP40, 1% sodium deoxycholate, 1 mM EDTA, 10 mM Tris-HCl pH 8), and finally two washes with Tris-HCl EDTA buffer (10 mM Tris-HCl pH 8, 1 mM EDTA). DNA was eluted by incubating beads for 30 min at room temperature with SDS elution buffer (1% SDS, 0.1 M sodium bicarbonate), followed by 1.25 M NaCl and 2.5 mg/mL RNAse A at 95° for 15 min shaking followed by addition of proteinase K buffer (1 μL 10 mg/mL proteinase K, 5 μL […], 10 μL 1 M Tris pH 7.5) shaking at 60° for 15 min. DNA was then isolated using phenol:chloroform:isoamyl alcohol extraction following the general protocol as mentioned above. […] The % input calculations were determined by comparing CT values from input DNA and ChIP DNA for the TOP2A target promoter region using the following equation: % Input=% of starting input fraction×2^[CT(input)−CT(Chlp)] […]

[5] = SW620, RAMS11 siRNA1 relative to scrambled control
[6] = SW620, RAMS11 siRNA2 relative to scrambled control
[7] = OE1 (RAMS11 overexpression clone 1), 0.1 uM drug
[8] = OE1 (RAMS11 overexpression clone 1), 1 uM drug
[9] = OE1 (RAMS11 overexpression clone 1), 10 uM drug
[10] = OE2 (RAMS11 overexpression clone 2), 0.1 uM drug
[11] = OE2 (RAMS11 overexpression clone 2), 1 uM drug
[12] = OE2 (RAMS11 overexpression clone 2), 10 uM drug
[13] = LoVo RAMS11 CRISPR KO vs wild-type treated cells, 0.5 μM doxorubicin or 0.7 μM epirubicin

Compound: O=c1[nH]cc(F)c(=O)[nH]1 [5-FU, fluorouracil, reference compound]
- increase in drug sensitivity ([1]; LoVo RAMS11 CRISPR1 compared with wild-type cells): 1.7 fold
- increase in drug sensitivity ([1]; LoVo RAMS11 CRISPR2 compared with wild-type cells): 5.8 fold
- decrease in ex vivo BLI of lung tissue (wildtype (WT) HT29 cells): 55%
- change between vehicle and 5FU-treated mice, in vivo and ex vivo lung BLI [2]: no significant change
- increase in drug sensitivity [3, 5]: > 1.53 fold
- increase in drug sensitivity [3, 6]: > 1.59 fold
- Viability Fold Change [4, 7]: 0.9856
- Viability Fold Change [4, 8]: 0.9553
- Viability Fold Change [4, 9]: 0.9891
- Viability Fold Change [4, 10]: 0.9406
- Viability Fold Change [4, 11]: 0.9417
- Viability Fold Change [4, 12]: 1.021

Compound: COc1cccc2c1C(=O)c1c(O)c3c(c(O)c1C2=O)C[C@@](O)(C(=O)CO)C[C@@H]3O[C@H]1C[C@H](N)[C@H](O)[C@H](C)O1 [doxorubicin HCl, reference compound]
- increase in drug sensitivity [1, 13]: 1.5 fold
- Viability Fold Change [4, 7]: 1.113
- Viability Fold Change [4, 8]: 1.973
- Viability Fold Change [4, 9]: 2.438
- Viability Fold Change [4, 10]: 1.165
- Viability Fold Change [4, 11]: 1.939
- Viability Fold Change [4, 12]: 2.403
- increase in drug resistance in HT29 RAMS11 overexpressing cells [4]: at least a two-fold increase in drug resistance

Compound: COc1cccc2c1C(=O)c1c(O)c3c(c(O)c1C2=O)C[C@@](O)(C(=O)CO)C[C@@H]3O[C@H]1C[C@H](N)[C@@H](O)[C@H](C)O1 [epirubicin HCl, reference compound]
- increase in drug sensitivity [1, 13]: 1.5 fold
- increase in drug resistance in HT29 RAMS11 overexpressing cells [4]: at least a two-fold increase in drug resistance

Compound: CCc1c2c(nc3ccc(OC(=O)N4CCC(N5CCCCC5)CC4)cc13)-c1cc3c(c(=O)n1C2)COC(=O)[C@]3(O)CC [irinotecan]
- effect of cell viability [1]: did not see a significant effect
- increase in drug sensitivity [3, 5]: > 3.17 fold
- increase in drug sensitivity [3, 6]: > 11.8 fold
- effect of cell viability [4]: did not see a significant effect

Compound: O=C1[O][Pt]2([NH][C@@H]3CCCC[C@H]3[NH]2)[O]C1=O [oxaliplatin, reference compound]
- effect of cell viability [1]: did not see a significant effect
- effect of cellular viability ([3]; SW620 cells with silenced RAMS11): did not have a significant effect
- effect of cell viability [4]: did not see a significant effect
- Viability Fold Change [4, 7]: 0.9127
- Viability Fold Change [4, 8]: 0.9881
- Viability Fold Change [4, 9]: 1.33
- Viability Fold Change [4, 10]: 0.9671
- Viability Fold Change [4, 11]: 1.102
- Viability Fold Change [4, 12]: 1.427

Compound: ASO #1: LNA GapmeR antisense oligonucleotide against RAMS11: CAACTTCCAGCAAGAT (SEQ ID NO: 41) (LNA gapmer, pattern not given here)
- RAMS11 knockdown (RAMS11): most potent
- cell viability (LoVo cells): do not alter cell viability

Compound: ASO #2: LNA GapmeR antisense oligonucleotide against RAMS11: AGAACTGCTAAAAGTG (SEQ ID NO: 42) (LNA gapmer, pattern not given here)
- RAMS11 knockdown (RAMS11): most potent
- cell viability (LoVo cells): do not alter cell viability

Compound: CBX4 siRNA: custom silencer select siRNA targeting CBX4, SEQ ID NO: 35 and 36 (chain 1 UAUGGGUUCAUCCAGGUCUGA; chain 2 AGACCUGGAUGAACCCAUATT; chemistry not given here)
- H3K4me3 at the TOP2α promoter (TOP2α promoter): decrease
- decrease in CBX4 occupancy at the TOP2α promoter (TOP2α promoter): 78%

Source: patent US12024707B2, “Methods and compositions for modulating lncRNAs and methods of treatment based on lncRNA expression” (Washington University, priority 2020, dated 2024)
